Key:
PC3 xenograft tumors = experiment: PC3 xenograft tumor growth; type: in vivo, nu/nu athymic mice; details: 15 or 30 mg/kg orally twice a day, 5-day-on 2-day-off, 20 doses
Description: FIG. 5. […] Xenograft tumors were established subcutaneously in nu/nu athymic mice. The mice were divided into three groups each with 8 mice after tumors had reached approximately 200 mg. […] Dasatinib was administered orally twice a day on a 5-day-on 2-day-off schedule for 20 doses. The tumor size measurement and blood sampling were performed prior to treatment and weekly for two weeks after treatment initiation. […] Experiments were performed as described in Example 2.
The mice were divided into three groups each with 8 mice after tumors had reached approximately 200 mg. […] Dasatinib was administered orally twice a day on a 5-day-on 2-day-off schedule for 20 doses. The tumor size measurement and blood sampling were performed prior to treatment and weekly for two weeks after treatment initiation. Tumor weight was determined using the following equation: tumor weight=(length*width^2)/2.

PLAU mRNA = experiment: Down-regulation of PLAU mRNA expression by dasatinib; type: cell-based, human; details: for reduction of PLAU mRNA expression: 100 nM, 48 hours vs DMSO
From the text: FIG. 3. PLAU gene expression and regulation by dasatinib analyzed at mRNA and protein levels. (A) Differential baseline expression of PLAU gene between resistant (R, in black) and sensitive (S, in red) cell lines. The X-values are the expression level in log2-scale. The resistant cell line expressing high level of PLAU was WPMY1 and the sensitive cell line expressing low level of PLAU was LNCaP. (B) Down-regulation of PLAU mRNA level by dasatinib-treatment in 5 sensitive cell lines. The cells were treated with 100 nM dasatinib (+D) or DMSO (Ctrl) for 48 hours. The p value was 0.048 in paired t-test, indicating a significant reduction of PLAU mRNA following dasatinib treatment. (C) Correlation between dasatinib-induced PLAU mRNA down-regulation with the sensitivity of cell lines to dasatinib. In addition to those 5 sensitive cells, three dasatinib-resistant cell lines 22Rv, MDAPCa2b, and VCaP were also treated with dasatinib same as in FIG. 3B. The extent of PLAU down-regulation by dasatinib (Y-axis) was negatively correlated with the log2IC50 values (X-axis) of these 8 cell lines. (D) Dose-dependent down-regulation of PLAU mRNA expression in PC3 cells. Cells were treated with or without different concentrations of dasatinib for 4 or 24 hours. The PLAU expression level relative to control was shown in Y-axis. (E) Dose-dependent inhibition of secreted uPA protein in PC3 cells by dasatinib but not by TAXOL®. Cells were treated with different doses of dasatinib, TAXOL® or DMSO for 24 hours. The amount of uPA protein secreted into the culture medium by 50,000 viable cells was assessed by ELISA assay.
The down-regulation of PLAU mRNA expression by dasatinib was observed (FIG. 3B).
(§1) AFFYMETRIX® HG-U133v2 gene chips containing ˜22,000 probe sets were used for gene expression profiling (Affymetrix, Santa Clara, Calif.). Total RNA was isolated from the cells using the RNeasy kits (Qiagen, Valencia, Calif.). The quality of the RNA was assessed using an Agilent 2100 Bioanalyzer (Agilent, Santa Clara, Calif.). Ten μg of total RNA was used for the preparation of biotin-labeled cRNA. Chip hybridization, scanning and data acquisition were performed according to the Expression Analysis Technical Manual provided by the manufacturer.
(§2) The raw expression data were normalized using an RMA algorithm and analyzed in PARTEK® Discovery Suite software (Partek, St Louis, Mo.). Two statistical analyses including 1-way ANOVA for comparison of gene expression between sensitive and resistant cell line groups, and Pearson correlation between gene expression level and log2IC50 values were performed to identify genes whose baseline expression levels correlated with the sensitivity to dasatinib in 16 prostate cell lines (p value<0.05 in both analyses). […] ESTs and gene duplicates were eliminated from the final list. Gene expression profiles of drug treated (100 nM for 2 days) cell lines were compared with those of DMSO control using paired t-test (p value<0.05). Clustering analysis was performed using GeneCluster software and heatmaps were generated with red and green indicating high or low expression respectively.

RWPE2 = experiment: In vitro cell proliferation assay (MTS); type: cell-based, human; details: RWPE2 cells
Description: The IC50 for each cell line was assessed in by MTS assays as described in Example 1 (Methods). […] The IC50 unit is μM.
All cell lines were obtained from the American Type Culture Collection (Manassas, Va.), except DUCaP, which was obtained from Dr. Kenneth Pienta at University of Michigan. PWR1E and MDAPCa2b cells were grown in BRFF-HPC1 serum-free medium (AthenaES, Baltimore, Md.), and all other cells were cultured in RPMI 1640 supplemented with 10% fetal bovine serum, 100 IU/ml penicillin, and […] (Invitrogen, Carlsbad, Calif.). DUCaP cells were maintained in the presence of an immortalized mouse fibroblast cell line, which formed a layer beneath DUCaP cells that easily dislodged. Cells were incubated at 37° C. with circulation of 5% CO2.
The optimum number of cells to seed in 96-well plates to achieve linearity were determined in pilot experiments. Cells were plated at density of 2000-5000 cells/well into 96-well plates and cultured overnight. Cells were then treated with dasatinib at serially diluted concentrations. Three days later, MTS was added to the medium and quantified on a SPECTRAMAX® photometric plate reader (Molecular Devices, Sunnyvale, Calif.) at 490 nm. The results were plotted against drug concentrations and IC50s were calculated using Prism4 software (GraphPad, San Diego, Calif.). The IC50 was the concentration of dasatinib that would reduce cell proliferation by 50% compared to control. Minimum three independent assays were performed for each cell line. […] In the latter case, the concentration of dasatinib that was able to consistently reduce cell proliferation was used as IC50. […] Dasatinib stock, dissolved in DMSO, was 10 mg/ml.

[1] = tested on: PWR1E, RWPE2, PC3, DU145 and LNCaP cells; experiment: Microarray gene expression profiling of drug-treated vs mock-treated cell lines (genes modulated by BMS-A); type: cell-based, human
Description: as §1, §2

[2] = 100 nM for 2 days vs DMSO control, paired t-test p<0.05, 5 sensitive cell lines

Cc1nc(Nc2ncc(C(=O)Nc3c(C)cccc3Cl)s2)cc(N2CCN(CCO)CC2)n1 [BMS-A, N-(2-chloro-6-methylphenyl)-2-[[6-[4-(2-hydroxyethyl)-1-piperazinyl]-2-methyl-4-pyrimidinyl]amino]-5-thiazolecarboxamide]
PC3 xenograft tumor growth (PC3 xenograft tumors): inhibited
reduction of PLAU mRNA expression (PLAU mRNA; DU145 cells): approximately 50%
reduction of PLAU mRNA expression (PLAU mRNA; LNCaP cells): showed a reduction
reduction of PLAU mRNA expression (PLAU mRNA; PC3 cells): approximately 50%
reduction of PLAU mRNA level, multiple-dose treatment study (PLAU mRNA; PC3 cells, 4 h, all doses vs untreated control): minimal
reduction of PLAU mRNA level, multiple-dose treatment study (PLAU mRNA; PC3 cells, 24 h, dose-dependent): dramatic
reduction of PLAU mRNA expression (PLAU mRNA; PWR1E cells (CK5-expressing)): relatively mild reduction
reduction of PLAU mRNA expression (PLAU mRNA; RWPE2 cells (CK5-expressing)): relatively mild reduction
IC50 (RWPE2; Homo sapiens, 72 h, MTS, three days, read-out: mean IC50 (μM) to BMS-A): 0.151 µM
Classification (RWPE2; based on IC50): Sensitive (The cell lines with an IC50 lower than 0.2 μm were defined as sensitive to the compound)
Modulated by BMS-A: ANXA3 (annexin A3) expression [1, 2]: Decreased
Modulated by BMS-A: ARNTL2 expression [1, 2]: Decreased
Modulated by BMS-A: AXL expression [1, 2]: Decreased
Modulated by BMS-A: CST6 (cystatin E/M) expression [1, 2]: Decreased
Modulated by BMS-A: EREG (epiregulin) expression [1, 2]: Decreased
Modulated by BMS-A: FHL2 expression [1, 2]: Decreased
Modulated by BMS-A: LAMC2 (laminin, gamma 2) expression [1, 2]: Decreased
Modulated by BMS-A: PLAU (plasminogen activator, urokinase) expression [1, 2]: Decreased
Modulated by BMS-A: SCEL (sciellin) expression [1, 2]: Decreased
Modulated by BMS-A: ZBED2 expression [1, 2]: Decreased
Modulated by BMS-A (p < 0.05): AXL expression ([1]; gene AXL receptor tyrosine kinase (AXL), probe 202686_s_at, Gene No. 52, expressed in sensitive cell lines): decreased
Modulated by BMS-A (p < 0.05): ANXA3 expression ([1]; gene annexin A3 (ANXA3), probe 209369_at, Gene No. 8, expressed in sensitive cell lines): decreased
Modulated by BMS-A (p < 0.05): ARNTL2 expression ([1]; gene aryl hydrocarbon receptor nuclear translocator-like 2 (ARNTL2), probe 220658_s_at, Gene No. 100, expressed in sensitive cell lines): decreased
Modulated by BMS-A (p < 0.05): CST6 expression ([1]; gene cystatin E/M (CST6), probe 206595_at, Gene No. 15, expressed in sensitive cell lines): decreased
Modulated by BMS-A (p < 0.05): EREG expression ([1]; gene epiregulin (EREG), probe 205767_at, Gene No. 43, expressed in sensitive cell lines): decreased
Modulated by BMS-A (p < 0.05): FHL2 expression ([1]; gene four and a half LIM domains 2 (FHL2), probe 202949_s_at, Gene No. 54, expressed in sensitive cell lines): decreased
Modulated by BMS-A (p < 0.05): LAMC2 expression ([1]; gene laminin, gamma 2 (LAMC2), probe 202267_at, Gene No. 33, expressed in sensitive cell lines): decreased
Modulated by BMS-A (p < 0.05): PLAU (uPA) expression ([1]; gene plasminogen activator, urokinase (PLAU, also referred to as uPA), probe 205479_s_at, Gene No. 63, expressed in sensitive cell lines): decreased
Modulated by BMS-A (p < 0.05): SCEL expression ([1]; gene sciellin (SCEL), probe 206884_s_at, Gene No. 3, expressed in sensitive cell lines): decreased
